Among the data in ChEMBL document CHEMBL1138953 (Bioorg Med Chem Lett, 2006) are Ki values, retold here.

The target of assay [1] is Cannabinoid receptor 2 (Homo sapiens, UniProt P34972). Kind of assay: Displacement of [3H]CP-55-940 from human recombinant CB2 receptor in COS cells. It counts as cell-based. For orientation: In a radioligand displacement assay an active substance lowers the binding of a labelled ligand.
The target in assay [2] is Cannabinoid receptor 1 (Homo sapiens, UniProt P21554). Kind of assay: Displacement of [3H]CP-55-940 from human recombinant CB1 receptor in COS cells. It counts as cell-based.
Cannabinoid receptor 1, sequence (P21554 whole entry): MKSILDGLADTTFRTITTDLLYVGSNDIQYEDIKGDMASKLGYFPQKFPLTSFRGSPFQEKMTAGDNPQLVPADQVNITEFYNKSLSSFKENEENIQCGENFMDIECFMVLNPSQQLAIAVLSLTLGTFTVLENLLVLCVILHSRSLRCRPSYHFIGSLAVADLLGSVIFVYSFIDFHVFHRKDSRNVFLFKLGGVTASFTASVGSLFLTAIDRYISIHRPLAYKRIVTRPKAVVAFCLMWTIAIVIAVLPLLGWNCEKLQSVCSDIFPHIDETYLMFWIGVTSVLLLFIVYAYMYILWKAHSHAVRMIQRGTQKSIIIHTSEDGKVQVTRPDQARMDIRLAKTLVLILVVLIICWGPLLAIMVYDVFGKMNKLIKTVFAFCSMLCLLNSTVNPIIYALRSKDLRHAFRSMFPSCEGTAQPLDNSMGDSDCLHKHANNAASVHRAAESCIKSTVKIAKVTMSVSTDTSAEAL

Cannabinoid receptor 2, sequence (P34972 whole entry): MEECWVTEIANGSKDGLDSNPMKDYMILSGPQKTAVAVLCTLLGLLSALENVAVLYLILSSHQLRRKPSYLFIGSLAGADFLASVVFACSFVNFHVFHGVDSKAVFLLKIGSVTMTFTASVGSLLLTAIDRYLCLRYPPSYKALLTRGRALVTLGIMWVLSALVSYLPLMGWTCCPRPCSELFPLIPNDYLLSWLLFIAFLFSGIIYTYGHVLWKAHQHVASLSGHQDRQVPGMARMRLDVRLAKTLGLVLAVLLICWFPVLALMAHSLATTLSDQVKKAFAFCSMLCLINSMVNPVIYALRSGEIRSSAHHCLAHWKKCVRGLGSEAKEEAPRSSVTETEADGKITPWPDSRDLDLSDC

What is called Ki is a measure of affinity in units of concentration, obtained from inhibition or displacement. For the compound `C[C@H](CO)NC(=O)CCC/C=C\C/C=C\C/C=C\C/C=C\CCOC(=O)c1cc(I)ccc1N=[N+]=[N-]`, the figures for the Ki in assay [1] and in assay [2] were 220 nM and 570 nM, respectively.
